Results: patent US11858941B2, “Heterocyclic and heteroaryl compounds for treating Huntington's disease” (PTC THERAPEUTICS, INC., priority 2018, dated 2024)

Tested on: Endogenous Huntingtin Protein
Experiment: Endogenous Huntingtin Protein Assay (Meso Scale Discovery ELISA-based electrochemiluminescence)
Assay type: cell-based
Settings: MSD plates coated with MW1 (expanded polyglutamine) or MAB2166 capture antibody; lysates
How it was run: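 MSD electrochemiluminescence sandwich ELISA: MW1 (expanded polyQ) or MAB2166 capture antibody at 1 μg/mL, samples incubated overnight at 4° C. Detection with rabbit monoclonal #5656S then SULFO-TAG anti-rabbit antibody, each 0.25 μg/mL for 1 h at room temperature.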

Structure (SMILES): CC1(C)CC(n2c(O)nc3cc(-c4ccc(-c5cn[nH]c5)cc4O)nnc32)CC(C)(C)N1 [Cpd 9, 3-[2-hydroxy-4-(1H-pyrazol-4-yl)phenyl]-7-(2,2,6,6-tetramethylpiperidin-4-yl)-7H-imidazo[4,5-c]pyridazin-6-ol]
- IC50: 1000 to 3000 nM

Structure (SMILES): CC1(C)CC(n2nnc3cc(-c4ccc(-c5ccn6ncnc6c5)cc4O)nnc32)CC(C)(C)N1 [Cpd 126, 2-[3-(2,2,6,6-tetramethylpiperidin-4-yl)-3H-[1,2,3]triazolo[4,5-c]pyridazin-6-yl]-5-([1,2,4]triazolo[1,5-a]pyridin-7-yl)phenol]
- IC50: 100 to 500 nM

Structure (SMILES): CC1(C)CC(n2nnc3cc(-c4ccc(-c5cn[nH]c5)cc4O)nnc32)CCN1 (stereo not drawn) [Cpd 56, 2-[3-(2,2-dimethylpiperidin-4-yl)-3H-[1,2,3]triazolo[4,5-c]pyridazin-6-yl]-5-(1H-pyrazol-4-yl)phenol]
- IC50: 100 to 500 nM

Structure (SMILES): CC1(C)CC(n2nnc3cc(-c4cc(Cl)c(-c5cn[nH]c5)cc4O)nnc32)CC(C)(C)N1 [Cpd 83, 4-chloro-5-(1H-pyrazol-4-yl)-2-[3-(2,2,6,6-tetramethylpiperidin-4-yl)-3H-[1,2,3]triazolo[4,5-c]pyridazin-6-yl]phenol]
- IC50: ≤ 100 nM

Structure (SMILES): CC1(C)C[C@@H](n2nnc3cc(-c4ccc(-c5cn[nH]c5)cc4O)nnc32)[C@H](F)C(C)(C)N1 [Cpd 168, 2-{3-[(3S,4R)-3-fluoro-2,2,6,6-tetramethylpiperidin-4-yl]-3H-[1,2,3]triazolo[4,5-c]pyridazin-6-yl}-5-(1H-pyrazol-4-yl)phenol]
- IC50: ≤ 100 nM

Structure (SMILES): CC1(C)CC(n2nnc3cc(-c4c(O)cc(-c5cn[nH]c5)cc4F)nnc32)CC(C)(C)N1 [Cpd 59, 3-fluoro-5-(1H-pyrazol-4-yl)-2-[3-(2,2,6,6-tetramethylpiperidin-4-yl)-3H-[1,2,3]triazolo[4,5-c]pyridazin-6-yl]phenol]
- IC50: ≤ 100 nM

Structure (SMILES): CC1(C)CC(n2nnc3cc(-c4ccc(-c5ccncc5)cc4O)nnc32)CC(C)(C)N1 [Cpd 66, 5-(pyridin-4-yl)-2-[3-(2,2,6,6-tetramethylpiperidin-4-yl)-3H-[1,2,3]triazolo[4,5-c]pyridazin-6-yl]phenol]
- IC50: ≤ 100 nM

Structure (SMILES): CN(C)c1cc(-c2ccc(-c3cc4nnn(C5CC(C)(C)NC(C)(C)C5)c4nn3)c(O)c2)ccn1 [Cpd 100, 5-[2-(dimethylamino)pyridin-4-yl]-2-[3-(2,2,6,6-tetramethylpiperidin-4-yl)-3H-[1,2,3]triazolo[4,5-c]pyridazin-6-yl]phenol]
- IC50: 1000 to 3000 nM

Structure (SMILES): CC1(C)CC(n2nnc3cc(-c4cc(F)c(-c5cn[nH]c5)cc4F)nnc32)CC(C)(C)N1 [Cpd 14, 6-[2,5-difluoro-4-(1H-pyrazol-4-yl)phenyl]-3-(2,2,6,6-tetramethylpiperidin-4-yl)-3H-[1,2,3]triazolo[4,5-c]pyridazine]
- IC50: 100 to 500 nM

Structure (SMILES): CC1(C)CC(N2CCc3cc(-c4ccc(-c5cn[nH]c5)cc4O)nnc32)CC(C)(C)N1 [Cpd 23, 5-(1H-pyrazol-4-yl)-2-[7-(2,2,6,6-tetramethylpiperidin-4-yl)-6,7-dihydro-5H-pyrrolo[2,3-c]pyridazin-3-yl]phenol]
- IC50: ≤ 100 nM

Structure (SMILES): CNc1nc2cc(-c3ccc(-c4cn[nH]c4)cc3O)nnc2n1C1CC(C)(C)NC(C)(C)C1 [Cpd 42, 2-[6-(methylamino)-7-(2,2,6,6-tetramethylpiperidin-4-yl)-7H-imidazo[4,5-c]pyridazin-3-yl]-5-(1H-pyrazol-4-yl)phenol]
- IC50: 100 to 500 nM

Structure (SMILES): CC1(C)CC(n2nnc3cc(-c4ccc(-c5cn6ccnc6cn5)cc4O)nnc32)CC(C)(C)N1 [Cpd 142, 5-(imidazo[1,2-a]pyrazin-6-yl)-2-[3-(2,2,6,6-tetramethylpiperidin-4-yl)-3H-[1,2,3]triazolo[4,5-c]pyridazin-6-yl]phenol]
- IC50: ≤ 100 nM

Structure (SMILES): CC1(C)CC(n2nnc3cc(-c4ccc(-c5ccnc(C(F)(F)F)c5)cc4O)nnc32)CC(C)(C)N1 [Cpd 74, 2-[3-(2,2,6,6,-tetramethylpiperidin-4-yl)-3H-[1,2,3]triazolo[4,5-c]pyridazin-6-yl]-5-[2-(trifluoromethyl)pyridin-4-yl]phenol]
- IC50: 100 to 500 nM

Structure (SMILES): COc1cc(-c2ccc(-c3cc4nnn(C5CC(C)(C)NC(C)(C)C5)c4nn3)c(O)c2)ccn1 [Cpd 77, 5-(2-methoxypyridin-4-yl)-2-[3-(2,2,6,6-tetramethylpiperidin-4-yl)-3H-[1,2,3]triazolo[4,5-c]pyridazin-6-yl]phenol]
- IC50: ≤ 100 nM

Structure (SMILES): CC1(C)CC(n2ncc3cc(-c4ccc(-c5c[nH]nc5F)cc4O)nnc32)CC(C)(C)N1 [Cpd 161, 5-(3-fluoro-1H-pyrazol-4-yl)-2-(1-(2,2,6,6-tetramethylpiperidin-4-yl)-1H-pyrazolo[3,4-c]pyridazin-5-yl)phenol]
- IC50: ≤ 100 nM

Structure (SMILES): CC1(C)C=C(c2csc3cc(-c4ccc(-c5cn[nH]c5)cc4O)nnc23)CC(C)(C)N1 [Cpd 17, 5-(1H-pyrazol-4-yl)-2-[7-(2,2,6,6-tetramethyl-1,2,3,6-tetrahydropyridin-4-yl)thieno[3,2-c]pyridazin-3-yl]phenol]
- IC50: ≤ 100 nM

Structure (SMILES): Oc1cc(-c2cn[nH]c2)ccc1-c1cc2[nH]cc(C3=CC4CCC(C3)N4)c2nn1 (stereo not drawn) [Cpd 27, 2-[7-(8-azabicyclo[3.2.1]oct-2-en-3-yl)-5H-pyrrolo[3,2-c]pyridazin-3-yl]-5-(1H-pyrazol-4-yl)phenol]
- IC50: ≤ 100 nM

Structure (SMILES): CC1(C)CC(n2nnc3cc(-c4ccc(-c5ccccn5)cc4O)nnc32)CC(C)(C)N1 [Cpd 61, 5-(pyridin-2-yl)-2-[3-(2,2,6,6-tetramethylpiperidin-4-yl)-3H-[1,2,3]triazolo[4,5-c]pyridazin-6-yl]phenol]
- IC50: 1000 to 3000 nM

Structure (SMILES): CC1(C)CC(n2ccc3nc(-c4cc(F)c(-c5cn[nH]c5)cc4F)cnc32)CC(C)(C)N1 [Cpd 16, 2-[2,5-difluoro-4-(1H-pyrazol-4-yl)phenyl]-5-(2,2,6,6-tetramethylpiperidin-4-yl)-5H-pyrrolo[2,3-b]pyrazine]
- IC50: 100 to 500 nM

Structure (SMILES): CC1(C)CC(n2nnc3cc(-c4ccc(-c5cnn(C(F)F)c5)cc4O)nnc32)CC(C)(C)N1 [Cpd 71, 5-[1-(difluoromethyl)-1H-pyrazol-4-yl]-2-[3-(2,2,6,6-tetramethylpiperidin-4-yl)-3H-[1,2,3]triazolo[4,5-c]pyridazin-6-yl]phenol]
- IC50: 100 to 500 nM

Structure (SMILES): CCNc1nc2cc(-c3ccc(-c4cn[nH]c4)cc3O)nnc2n1C1CC(C)(C)NC(C)(C)C1 [Cpd 49, 2-[6-(ethylamino)-7-(2,2,6,6-tetramethylpiperidin-4-yl)-7H-imidazo[4,5-c]pyridazin-3-yl]-5-(1H-pyrazol-4-yl)phenol]
- IC50: 1000 to 3000 nM

Structure (SMILES): CN1C(C)(C)CC(n2nnc3cc(-c4ccc(-c5cn[nH]c5)cc4O)nnc32)CC1(C)C [Cpd 52, 2-[3-(1,2,2,6,6-pentamethylpiperidin-4-yl)-3H-[1,2,3]triazolo[4,5-c]pyridazin-6-yl]-5-(1H-pyrazol-4-yl)phenol]
- IC50: 500 to 1000 nM

Structure (SMILES): CC1(C)CC(n2nnc3cc(-c4ccc(-n5cccn5)cc4O)nnc32)CC(C)(C)N1 [Cpd 34, 5-(1H-pyrazol-1-yl)-2-[3-(2,2,6,6-tetramethylpiperidin-4-yl)-3H-[1,2,3]triazolo[4,5-c]pyridazin-6-yl]phenol]
- IC50: 100 to 500 nM

Structure (SMILES): CC1(C)CC(n2nnc3cc(-c4ccc(-c5ccc(OC(F)F)cn5)cc4O)nnc32)CC(C)(C)N1 [Cpd 103, 5-[5-(difluoromethoxy)pyridin-2-yl]-2-[3-(2,2,6,6-tetramethylpiperidin-4-yl)-3H-[1,2,3]triazolo[4,5-c]pyridazin-6-yl]phenol]
- IC50: 100 to 500 nM

Structure (SMILES): CC1(C)CC(n2nnc3cc(-c4ccc(-c5ccnc6[nH]ccc56)cc4O)nnc32)CC(C)(C)N1 [Cpd 118, 5-(1H-pyrrolo[2,3-b]pyridin-4-yl)-2-[3-(2,2,6,6-tetramethylpiperidin-4-yl)-3H-[1,2,3]triazolo[4,5-c]pyridazin-6-yl]phenol]
- IC50: 1000 to 3000 nM

Structure (SMILES): CC1(C)CC(n2nnc3cc(-c4ccc(-c5ccn6cncc6c5)cc4O)nnc32)CC(C)(C)N1 [Cpd 88, 5-(imidazo[1,5-a]pyridin-7-yl)-2-[3-(2,2,6,6-tetramethylpiperidin-4-yl)-3H-[1,2,3]triazolo[4,5-c]pyridazin-6-yl]phenol]
- IC50: 100 to 500 nM

Structure (SMILES): CC1(C)C[C@H](n2nnc3cc(-c4ccc(-c5c[nH]nc5F)cc4O)nnc32)[C@H](F)C(C)(C)N1 [Cpd 173, 5-(3-fluoro-1H-pyrazol-4-yl)-2-{3-[(3S,4S)-3-fluoro-2,2,6,6-tetramethylpiperidin-4-yl]-3H-[1,2,3]triazolo[4,5-c]pyridazin-6-yl}phenol]
- IC50: ≤ 100 nM

Structure (SMILES): Cn1cnc(-c2ccc(-c3cc4nnn([C@H]5CC(C)(C)NC(C)(C)[C@H]5F)c4nn3)c(O)c2)cc1=O [Cpd 172, 6-(4-{3-[(3S,4S)-3-fluoro-2,2,6,6-tetramethylpiperidin-4-yl]-3H-[1,2,3]triazolo[4,5-c]pyridazin-6-yl}-3-hydroxyphenyl)-3-methylpyrimidin-4(3H)-one]
- IC50: 100 to 500 nM

Structure (SMILES): Cc1cc(-c2ccc(-c3cc4nnn(C5CC(C)(C)NC(C)(C)C5)c4nn3)c(O)c2)ccn1 [Cpd 73, 5-(2-methylpyridin-4-yl)-2-[3-(2,2,6,6-tetramethylpiperidin-4-yl)-3H-[1,2,3]triazolo[4,5-c]pyridazin-6-yl]phenol]
- IC50: ≤ 100 nM

Structure (SMILES): CC1(C)CC(n2nnc3cc(-c4ccc(-c5cn[nH]c5)c5nn[nH]c45)nnc32)CC(C)(C)N1 [Cpd 117, 6-[4-(1H-pyrazol-4-yl)-1H-benzotriazol-7-yl]-3-(2,2,6,6-tetramethylpiperidin-4-yl)-3H-[1,2,3]triazolo[4,5-c]pyridazine]
- IC50: 3000 to 9000 nM

Structure (SMILES): CC1(C)CC(n2nnc3cc(-c4ccc(-c5nncs5)cc4O)nnc32)CC(C)(C)N1 [Cpd 116, 2-[3-(2,2,6,6-tetramethylpiperidin-4-yl)-3H-[1,2,3]triazolo[4,5-c]pyridazin-6-yl]-5-(1,3,4-thiadiazol-2-yl)phenol]
- IC50: ≤ 100 nM

Structure (SMILES): Cn1cc(-c2ccc(-c3cc4cnn(C5CC(C)(C)NC(C)(C)C5)c4nn3)c(O)c2)c(F)n1 [Cpd 148]
- IC50: ≤ 100 nM

Structure (SMILES): Cc1cnc(-c2ccc(-c3cc4nnn(C5CC(C)(C)NC(C)(C)C5)c4nn3)c(O)c2)s1 [Cpd 133, 5-(5-methyl-1,3-thiazol-2-yl)-2-[3-(2,2,6,6-tetramethylpiperidin-4-yl)-3H-[1,2,3]triazolo[4,5-c]pyridazin-6-yl]phenol]
- IC50: 100 to 500 nM
